The source made the active and inactive calls. No cut-off for these calls is given here.
What was measured:
H9c2 [1] = experiment: Antioxidant activity against H2O2-induced oxidative stress in rat H9c2 cells assessed as cell viability at 5 uM pretreated with compounds for 18 hrs followed by H2O2 stimulation for 24 hrs by MTT assay; format: functional, cell-based; settings: time 42.0 hrs
H9c2 [2] = experiment: Cytoprotective activity against high glucose-induced oxidative stress in rat H9c2 cells assessed as inhibition of cell viability pretreated with compounds for 18 hrs followed by H2O2 stimulation for 24 hrs by MTT assay; format: functional, cell-based; settings: dose 0.625-5 µM, time 42.0 hrs
H9c2 [3] = experiment: Inhibition of H2O2-induced oxidative stress in rat H9c2 cells assessed as reduction intracellular ROS level pretreated with compounds for 18 hrs followed by H2O2 stimulation for 2 hrs by DCFH-DA based fluorescence microscopic analysis; format: functional, cell-based; settings: dose 1.25-5 µM, time 20.0 hrs
H9c2 [4] = experiment: Cytoprotective activity against H2O2-induced oxidative stress in rat H9c2 cells assessed as inhibition of cell viability pretreated with compounds for 18 hrs followed by H2O2 stimulation for 24 hrs by MTT assay; format: functional, cell-based; settings: dose 0.625-5 µM, time 42.0 hrs
H9c2 [5] = experiment: […] of H2O2-induced oxidative stress in rat H9c2 cells assessed as decrease in MDA level pretreated with compounds for 18 hrs followed by H2O2 stimulation for 2 hrs by MDA assay; format: functional, cell-based; settings: dose 1.25-5 µM, time 20.0 hrs
H9c2 [6] = experiment: Cytoprotective activity against H2O2-induced rat H9c2 cells assessed as reversal of colony formation inhibition by colony formation assay; format: functional, cell-based; settings: dose 1.25-5 µM
H9c2 [7] = experiment: Activation of Nrf2 nuclear translocation in rat H9c2 cells assessed as increase in accumulation of Nrf2 in nucleus at 10 uM incubated for 6 hrs by DAPI staining based fluorescence microscopic analysis; format: cell-based; settings: filed as activator
H9c2 [8] = experiment: Upregulation of HO-1 protein expression in rat H9c2 cells incubated for 18 hrs by Western blot analysis; format: functional, cell-based; settings: dose 0.625-2.5 µM
H9c2 [9] = experiment: Downregulation of Nrf2 expression in rat H9c2 cells transfected with Nrf2 siRNA at 0.625 uM pretreated with compound for 18 hrs followed by H2O2 stimulation for 24 hrs by Western blot analysis; format: functional, cell-based; settings: time 42.0 hrs

SMILES	Activity (H9c2 [1])	other results
COc1ccccc1[C@H]1CN(C)C2(C(=O)Nc3ccc(F)cc32)[C@H]1C(=O)c1ccc(O)c(O)c1 (some centres undefined)	Active	
COc1ccc2c(c1)C1(C(=O)N2)[C@@H](C(=O)c2ccc(O)c(O)c2)[C@@H](c2ccccc2OC)CN1C (some centres undefined)	Active	Activity (H9c2 [2]): Dose-dependent-effect; inhibition (H9c2 [3]): Dose-dependent-effect; Activity (H9c2 [4]): Dose-dependent-effect; Activity (H9c2 [5]): Dose-dependent-effect; Activity (H9c2 [6]): Dose-dependent-effect
COc1ccc(OC)c([C@H]2CN(C)C3(C(=O)Nc4ccc(C)cc43)[C@H]2C(=O)c2ccc(O)c(O)c2)c1 (some centres undefined)	Active	
COc1ccccc1[C@H]1CN(C)C2(C(=O)Nc3ccccc32)[C@H]1C(=O)c1ccc(O)c(O)c1 (some centres undefined)	Active	
COc1ccc(OC)c([C@H]2CN(C)C3(C(=O)Nc4ccc(Br)cc43)[C@H]2C(=O)c2ccc(O)c(O)c2)c1 (some centres undefined)	Active	
COc1ccc(OC)c([C@H]2CN(C)C3(C(=O)Nc4ccc(OC)cc43)[C@H]2C(=O)c2ccc(O)c(O)c2)c1 (some centres undefined)	Active	
COc1ccccc1[C@H]1CN(C)C2(C(=O)Nc3ccc(Cl)cc32)[C@H]1C(=O)c1ccc(O)c(O)c1 (some centres undefined)	Active	
COc1ccccc1/C=C/C(=O)c1ccc(O)c(O)c1	Active	
COc1ccc(OC)c([C@H]2CN(C)C3(C(=O)Nc4ccc(Cl)cc43)[C@H]2C(=O)c2ccc(O)c(O)c2)c1 (some centres undefined)	Active	
COc1ccccc1[C@H]1CN(C)C2(C(=O)Nc3ccc(C)cc32)[C@H]1C(=O)c1ccc(O)c(O)c1 (some centres undefined)	Active	
COc1ccc(OC)c(/C=C/C(=O)c2ccc(O)c(O)c2)c1	Active	
COc1ccc(OC)c([C@H]2CN(C)C3(C(=O)Nc4ccc(F)cc43)[C@H]2C(=O)c2ccc(O)c(O)c2)c1 (some centres undefined)	Active	
COc1ccccc1[C@H]1CN(C)[C@]2(C(=O)c3cccc4cccc2c34)[C@H]1C(=O)c1ccc(O)c(O)c1	Active	
COc1ccc(OC)c([C@H]2CN(C)[C@]3(C(=O)c4cccc5cccc3c45)[C@H]2C(=O)c2ccc(O)c(O)c2)c1	Active	
COc1ccccc1[C@H]1CN(C)C2(C(=O)Nc3ccc(Br)cc32)[C@H]1C(=O)c1ccc(O)c(O)c1 (some centres undefined)	Active	
COc1ccc(OC)c([C@H]2CN(C)C3(C(=O)Nc4ccccc43)[C@H]2C(=O)c2ccc(O)c(O)c2)c1 (some centres undefined)	Active	Activity (H9c2 [7]): Active; Activity (H9c2 [2]): Dose-dependent-effect; Activity (H9c2 [8]): Dose-dependent-effect; inhibition (H9c2 [3]): Dose-dependent-effect; Activity (H9c2 [4]): Dose-dependent-effect; Activity (H9c2 [5]): Dose-dependent-effect; Activity (H9c2 [6]): Dose-dependent-effect; Activity (H9c2 [9]): Active
